Reference: US11467168B2, “Methods of identifying a moldulator of otopetrin-mediated proton translocation activity” (UNIVERSITY OF SOUTHERN CALIFORNIA, priority 2017, dated 2022)
Values joined by “and” are separate entries in the source; they are usually repeats but may differ in a detail not shown here. Equal values may be shown once.

Molecular target: T1, Otop1 (Mus musculus, UniProt Q80VM9, G396A)
T1 construct: expressed in transfected cells; host or cells: HEK-293 cells (CRL-1573, ATCC), transient co-transfection with GFP, cDNA in pcDNA3
T1 sequence (Q80VM9 1-600 G396A): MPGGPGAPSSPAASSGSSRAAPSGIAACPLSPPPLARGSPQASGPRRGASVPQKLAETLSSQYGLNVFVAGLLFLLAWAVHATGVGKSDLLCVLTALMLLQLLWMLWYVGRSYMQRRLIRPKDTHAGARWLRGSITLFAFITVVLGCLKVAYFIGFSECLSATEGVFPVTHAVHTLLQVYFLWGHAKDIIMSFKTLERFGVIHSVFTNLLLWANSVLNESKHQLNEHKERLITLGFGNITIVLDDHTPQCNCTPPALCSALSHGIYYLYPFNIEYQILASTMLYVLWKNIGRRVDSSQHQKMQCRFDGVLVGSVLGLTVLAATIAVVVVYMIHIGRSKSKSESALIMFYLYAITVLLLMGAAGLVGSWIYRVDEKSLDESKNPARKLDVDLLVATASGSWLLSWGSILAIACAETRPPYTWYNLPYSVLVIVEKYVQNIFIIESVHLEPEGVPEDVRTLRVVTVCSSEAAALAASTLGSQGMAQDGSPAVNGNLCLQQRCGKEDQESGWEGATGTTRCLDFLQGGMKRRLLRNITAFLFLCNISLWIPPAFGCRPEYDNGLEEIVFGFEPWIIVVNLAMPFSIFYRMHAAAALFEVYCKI
Assay: Zn2+ inhibition of Otop1 currents, whole-cell patch clamp in transfected HEK-293 cells
Assay type: cell-based
Settings: Otop1-transfected HEK-293 cells, currents evoked by pH 5.5, Hill equation fit
Text: The transition metal Zn^2+ is a potent inhibitor of Hv1, binding to two external histidine residues that regulate gating^7,31,32. […] To gain insights into structural elements involved in ion permeation by Otop1, we measured its sensitivity to inhibition by Zn^2+.
Otop and GFP (5:1) were co-transfected into HEK-293 cells (CRL-1573, ATCC) using TransIT-LT1 Transfection Reagent (Mirus Bio Corporation, Madison, Wis.). Patch clamp recording and imaging experiments on GFP-positive cells were performed at room temperature ˜24-48 h after transfection.
Whole-cell patch clamp recording was performed as previously described^49. In brief, recordings were made with an Axopatch 200A or Axopatch 200B amplifier, digitized with a Digidata 1322a 16-bit data acquisition system, acquired with pClamp 8.2, and analyzed with Clampfit 8.2 (Molecular Devices, Palo Alto, Calif.). Records were sampled at 5 kHz and filtered at 1 kHz. Patch pipettes with resistance of 2-4 MΩ were fabricated from borosilicate glass, and only recordings in which a gigaohm seal was achieved were used in the analysis. For most experiments, after the whole cell configuration was achieved, the membrane potential was held at −80 mV, or ramped from −80 mV to +80 mV (1V/s) once per second. […]

`[Cl-].[Cl-].[Zn+2]` [Zn^2+, ZnCl2] was tested, and the Hill coefficient was 0.89 and 0.89±0.06 and the IC50 was 190 µM.
